# Molecular target: T1, Human full-length diacylglycerol:acylCoA acyltransferase 1 (DGAT-1) (Homo sapiens, UniProt O75907)
# T1 construct: Human full-length diacylglycerol:acylCoA acyltransferase 1 (DGAT-1) was expressed in Sf9 insect cells; made in house; host or cells: Sf9 insect cells (baculovirus)
# T1 sequence (O75907 1-488): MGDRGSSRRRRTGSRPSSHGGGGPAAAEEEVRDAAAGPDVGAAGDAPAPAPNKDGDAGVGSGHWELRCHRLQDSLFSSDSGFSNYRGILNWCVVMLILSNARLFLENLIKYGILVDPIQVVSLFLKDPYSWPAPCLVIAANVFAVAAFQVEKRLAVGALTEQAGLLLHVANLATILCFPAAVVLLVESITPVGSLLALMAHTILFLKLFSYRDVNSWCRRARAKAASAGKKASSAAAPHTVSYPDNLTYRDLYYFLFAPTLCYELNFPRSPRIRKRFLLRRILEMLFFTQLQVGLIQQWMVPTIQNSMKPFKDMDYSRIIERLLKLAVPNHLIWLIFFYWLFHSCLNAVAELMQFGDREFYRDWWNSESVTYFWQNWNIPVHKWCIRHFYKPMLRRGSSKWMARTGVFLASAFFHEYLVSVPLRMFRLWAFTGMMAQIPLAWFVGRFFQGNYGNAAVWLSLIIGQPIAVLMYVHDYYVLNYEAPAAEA
# Experiment: In vitro DGAT-1 inhibition, Assay 1
# Type: biochemical
# Conditions: Sf9 microsomes at 25 μg/mL, [14C]decanoylCoA, eight inhibitor concentrations; average where n > 1
# Description: Human full-length diacylglycerol:acylCoA acyltransferase 1 (DGAT-1) was expressed in Sf9 insect cells which are then lysed and a crude membrane fraction (105,000×g pellet) was prepared. The DGAT-1 gene is a human DGAT-1 gene described in J Biol Chem 273:26765 (1998) and U.S. Pat. No. 6,100,077.
# In vitro inhibition of DGAT-1 was measured using a modification, further described below, of the assay methodology described in U.S. Pat. No. 6,994,956 B2. The cells were cultured as follows. Sf9 cells (20 L) were infected with 4 mL of DGAT-1 Baculovirus Infected Insect Cells (BIIC) for 72 hours in a Wave Bioreactor System 20/50P (Wave Biotec/GE Healthcare).
# Crude DGAT-1 microsomes were prepared as follows. Cell pellets were washed once with ice-cold Dulbecco's phosphate-buffered saline. Cells were collected in tabletop centrifuge (Beckman GS-6KR), 15 minutes, 2000×g, 4° C. Twenty (20) mL of ice-cold Microsome Buffer (MB) was added per 5 g of cell pellet. The suspension was passed through a microfluidizer 3 times (18K psi). […] The microsome concentration was determined using Bio-Rad Protein DC Protein Assay. […]
# The Microsome Buffer, used for microsome preparation, was prepared by conventional means and contained 125 mM sucrose, 3 mM imidazole, 0.2 μg/mL aprotinin, 0.2 μg/mL leupeptin and 5 mM dithiothreitol (Cleland's reagent) at pH-7.4 DGAT-1 activity was measured in 384-well format in a total assay volume of 20 μl that contained, Hepes buffer (50 mM, pH 7.5), MgCl2 (10 mM), bovine serum albumin (0.6 mg/ml), [^14C]decanoylCoA (25 μM, 58 Ci/mol) and microsomes (5.6 μg/ml) into which 1,2 dioleoyl-sn-glycerol (75 μM) in acetone has already been incorporated. […]
# The reactions were allowed to proceed for 1.5 h at room temperature and then terminated by the addition of 20 μl of EDTA (40 mM). […] Plates contents were allowed to partition for 15 to 30 min before ^14C was measured in a scintillation spectrometer (Wallac Microbeta Trilux 1450-030, 12 detector in the top-count DPM mode). […]
row,IC50 [nM],SMILES
1,618,"Cc1nc(N)c2c(n1)CCN(c1ccc([C@H]3CC[C@H](CC(=O)O)CC3)cc1)C2=O [Example 14, {trans-4-[4-(4-amino-2-methyl-5-oxo-7,8-dihydropyrido[4,3-d]pyrimidin-6(5H)-yl)phenyl]cyclohexyl}acetic acid]"
2,717,"Cc1nc(N)c2c(n1)CCN(c1ccc([C@H]3CC[C@@H](CC(=O)O)CC3)cc1)C2=O [Example 15, {cis-4-[4-(4-amino-2-methyl-5-oxo-7,8-dihydropyrido[4,3-d]pyrimidin-6(5H)-yl)phenyl]cyclohexyl}acetic acid]"
3,231,"Cc1nc(N)c2c(n1)CCN(c1ccc(C3CCC(CC(=O)O)CC3)cc1)C2=O (stereo not drawn) [Example 13, 2-(4-(4-(4-amino-2-methyl-5-oxo-7,8-dihydropyrido[4,3-d]pyrimidin-6(5H)-yl)phenyl)cyclohexyl)acetic acid]"

# From patent US20100197590A1, “4-AMINO-7,8-DIHYDROPYRIDO[4,3-d]PYRIMIDIN-5(6H)-ONE DERIVATIVES” (Pfizer Inc, priority 2009, published 2010)
